Among the data in patent publication US20250367193A1, “BIFUNCTIONAL COMPOUNDS CONTAINING SUBSTITUTED PYRIMIDINE DERIVATIVES FOR DEGRADING CYCLIN-DEPENDENT KINASE 2 VIA UBIQUITIN PROTEASOME PATHWAY” (NIKANG THERAPEUTICS, INC., priority 2022, published 2025) are IC50 values, retold here.

Each structure is given as a SMILES string.

The target of the test is T1, CDK2 (Homo sapiens, UniProt P24941).
T1 construct: High-Throughput Measurement of Cellular Endogenous CDK2; endogenous in cells; host or cells: OVCAR3
Nature of the test: Inhibition of CDK2: phospho-Rb (S807/811) HTRF measurement in cells. It is filed as cell-based. Conditions: OVCAR3 cells (CDK2 dependent cell line), 24 h compound treatment, read-out: pRb. Here is the method: Phosphorylation of RB protein at S807/811 are measured using HTRF phospho-RB cellular kits (Cat #64RBS807PEG) from Cisbio.
On Day 1, OVCAR3 (CDK2 dependent cell line) cells are seeded into 96-well tissue-culture treated plates at 20,000 cells/well in 200 μL and incubated overnight at 37° C. in CO2 atmosphere. On Day 2, the cells are treated with test compounds at concentrations from 0.3 to 10,000 nM using HP D300 digital dispenser. Twenty-four hours after compound treatment, cell culture media is removed by flicking the plate and tapping the plate against clean paper towel. Immediately 30 μL 1× lysis buffer is supplemented from the kit and the plate is incubated at room temperature on shaker for 30 min. After homogenization by pipetting up and down, 8 μL cell lysate from 96-well cell culture plate is transferred to 384-well small volume white detection plate. 2 μL premixed detection solution is added and the plate was covered with sealer. To prepare the detection solution, d2 conjugated-phospho-RB antibody and Eu-cryptate conjugated phosphor-RB antibody are diluted into detection buffer following manufacturer's instruction. Detection plates are incubated for 4 h at room temperature and read on ClarioStar (BMG Labtech) in TR-FRET mode ([…]). The TR-FRET ratio (665 nM/620 nM) is plotted against the compound concentration and normalized to DMSO controls. Half maximal inhibition concentration (IC50) values are calculated with a four-parameter logistic fit using GraphPad Prism (version 8; La Jolla, CA).
(In general: In TR-FRET formats the signal depends on donor and acceptor labels being close together.)
In the case of `Cn1nc(N2CCC(=O)NC2=O)c2ccc(C3CCN(Cc4cccc(S(=O)(=O)N5CCC(Nc6ncc(C(F)(F)F)c(O[C@@H]7CCC[C@@H]7O)n6)CC5)c4)CC3)cc21` (racemic) [Cpd 3, Rac-1-(6-(1-(3-((4-((4-(((1R,2S)-2-hydroxy-cyclopentyl)oxy)-5-(trifluoro-methyl)-pyrimidin-2-yl)amino)piperidin-1-yl)-sulfonyl)benzyl)piperidin-4-yl)-1-methyl-1H-indazol-3-yl)dihydropyrimidine-2,4(1H,3H)-dione], the IC50 is 28 to 100 nM.

For the molecule `Cn1nc(N2CCC(=O)NC2=O)c2ccc(C3CCN(Cc4cccc(S(=O)(=O)N5CCC(Nc6ncc(C(F)(F)F)c(OC7CCCC7)n6)CC5)c4)CC3)cc21` [Cpd 2, 1-(6-(1-(3-((4-((4-(cyclopentyloxy)-5-(trifluoromethyl)pyrimidin-2-yl)amino)-piperidin-1-yl)sulfonyl)benzyl)-piperidin-4-yl)-1-methyl-1H-indazol-3-yl)dihydro-pyrimidine-2,4(1H,3H)-dione], the IC50 lay in the range of 28 to 100 nM.

As to `Cn1nc(N2CCC(=O)NC2=O)c2ccc(C3CCN(Cc4cccc(S(=O)(=O)N5CCC(Nc6ncc(C(F)(F)F)c(N7CCCCC7)n6)CC5)c4)CC3)cc21` [Cpd 1, 1-(1-methyl-6-(1-(3-((4-((4-(piperidin-1-yl)-5-(trifluoromethyl)pyrimidin-2-yl)amino)-piperidin-1-yl)sulfonyl)benzyl)-piperidin-4-yl)-1H-indazol-3-yl)dihydropyrimidine-2,4(1H,3H)-dione], the IC50 fell in the range of 100 to 500 nM.

Consider `Cn1nc(N2CCC(=O)NC2=O)c2ccc(C3CCN(Cc4cccc(S(=O)(=O)N5CCC(Nc6ncc(C(F)(F)F)c(N7CCCC7)n6)CC5)c4)CC3)cc21` [Cpd 4, 1-(1-methyl-6-(1-(3-((4-((4-(pyrrolidin-1-yl)-5-(trifluoromethyl)pyrimidin-2-yl)amino)-piperidin-1-yl)sulfonyl)benzyl)piperidin-4-yl)-1H-indazol-3-yl)dihydropyrimidine-2,4(1H,3H)-dione], for which the IC50 was 100 to 500 nM.

With `Cn1nc(N2CCC(=O)NC2=O)c2ccc(C3CCN(CC4CCN(S(=O)(=O)c5ccc(Nc6ncc(C(F)(F)F)c(O[C@H]7CCC[C@H]7O)n6)cc5)CC4)CC3)cc21` (racemic) [compound 6, Rac-1-(6-(1-((1-((4-((4-(((1S,2R)-2-hydroxy-cyclopentyl)oxy)-5-(trifluoromethyl)-pyrimidin-2-yl)amino)phenyl)-sulfonyl)-piperidin-4-yl)methyl)piperidin-4-yl)-1-methyl-1H-indazol-3-yl)dihydropyrimidine-2,4(1H,3H)-dione], the IC50 lay within 100 to 500 nM.

As for `Cn1nc(N2CCC(=O)NC2=O)c2ccc(C3CCN(Cc4cccc(S(=O)(=O)N5CCC(Nc6ncc(C(F)(F)F)c(OC7CCC7)n6)CC5)c4)CC3)cc21` [Cpd 5, 1-(6-(1-(3-((4-((4-cyclobutoxy-5-(trifluoro-methyl)pyrimidin-2-yl)amino)piperidin-1-yl)sulfonyl)benzyl)piperidin-4-yl)-1-methyl-1H-indazol-3-yl)dihydropyrimidine-2,4(1H,3H)-dione], the IC50 lay in the range of 28 to 100 nM.
